Results taken from BindingDB's records for doi:10.1021/jm00092a019 (Bristol-Myers Squibb Pharmaceutical Research Institute, 1992).

What was measured:
[1] = Inhibition of platelet aggregation using adenosine diphosphate (ADP) as activating agent in human platelet rich plasma (PRP)
[2] = Inhibition of platelet aggregation using Adenosine diphosphate (ADP) as activating agent in rabbit platelet rich plasma (PRP)
[3] = as above; remark: listed apart in the source
[4] = Inhibition of platelet aggregation using adenosine diphosphate (ADP) as activating agent in human platelet rich plasma PRP
[5] = Inhibition of ADP-induced platelet aggregation in rabbit platelet rich plasma (PRP)
P2Y purinoceptor 12 = P2Y purinoceptor 12 (Homo sapiens, UniProt Q9H244); experiment: Inhibition of platelet aggregation using adenosine diphosphate (ADP) as activating agent in human platelet rich plasma (PRP)
Sequence of P2Y purinoceptor 12 (Q9H244 whole entry): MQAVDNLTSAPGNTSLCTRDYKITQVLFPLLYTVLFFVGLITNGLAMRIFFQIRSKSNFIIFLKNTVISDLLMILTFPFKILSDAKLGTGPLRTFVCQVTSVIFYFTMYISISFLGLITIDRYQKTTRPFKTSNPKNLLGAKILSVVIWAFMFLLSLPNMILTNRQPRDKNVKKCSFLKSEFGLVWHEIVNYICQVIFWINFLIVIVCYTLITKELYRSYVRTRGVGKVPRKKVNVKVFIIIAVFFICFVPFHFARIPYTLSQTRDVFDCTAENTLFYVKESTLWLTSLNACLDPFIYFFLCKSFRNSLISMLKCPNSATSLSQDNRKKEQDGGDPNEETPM

| EC50 [1] [nM] | EC50 [2] [nM] | EC50 [3] [nM] | SMILES | also measured |
| --- | --- | --- | --- | --- |
| – | 90 | – | COC(=O)CCCCCOc1ccc2nc3[nH]c(=O)[nH]c3cc2c1 | – |
| – | – | 66 | COC(=O)CCCOc1ccc2nc3[nH]c(=O)[nH]c3cc2c1 | EC50 [4]: 83 nM |
| – | 950 | – | COC(=O)CCCCOc1ccc2nc3[nH]c(=O)[nH]c3cc2c1 | – |
| 71600 | 1330 | – | CNC(=O)CCCOc1ccc2nc3[nH]c(=O)[nH]c3cc2c1 | – |
| 38 | – | 630 | CCOC(=O)CCCOc1ccc2nc3[nH]c(=O)[nH]c3cc2c1 | – |
| – | 950 | – | CC(=O)OCCCCOc1ccc2nc3[nH]c(=O)[nH]c3cc2c1 | – |
| > 106000 | > 106000 | – | O=C(O)CCCCOc1ccc2nc3[nH]c(=O)[nH]c3cc2c1 | – |
| – | 24300 | – | CCOC(=O)COc1ccc2nc3[nH]c(=O)[nH]c3cc2c1 | – |
| – | 1320 | – | N#CCCCCOc1ccc2nc3[nH]c(=O)[nH]c3cc2c1 | – |
| – | 3170 | – | O=C(O)CCCCCOc1ccc2nc3[nH]c(=O)[nH]c3cc2c1 | – |
| 3020 | 6040 | – | NC(=O)CCCOc1ccc2nc3[nH]c(=O)[nH]c3cc2c1 | – |
| 600 | – | 180 | N#CCCCOc1ccc2nc3[nH]c(=O)[nH]c3cc2c1 | – |
| – | 870 | – | CC(=O)OCCOc1ccc2nc3[nH]c(=O)[nH]c3cc2c1 | – |
| – | 770 | – | O=c1[nH]c2cc3cc(OCCCO)ccc3nc2[nH]1 | – |
| – | 1400 | – | CC(=O)CCCOc1ccc2nc3[nH]c(=O)[nH]c3cc2c1 | – |
| 100 | – | – | CC(O)CCCOc1ccc2nc3[nH]c(=O)[nH]c3cc2c1 (stereo unspecified) | EC50 [5]: 520 nM |
| 190 | – | – | CN(C)C(=O)CCCOc1ccc2nc3[nH]c(=O)[nH]c3cc2c1 | – |
| – | 1910 | – | O=C(O)COc1ccc2nc3[nH]c(=O)[nH]c3cc2c1 | – |
| – | 330 | – | CC(=O)OCCCOc1ccc2nc3[nH]c(=O)[nH]c3cc2c1 | – |
| – | 4840 | – | CCOCCOc1ccc2nc3[nH]c(=O)[nH]c3cc2c1 | – |

Further lines, the compound ahead of its results:

| SMILES | EC50 [1] [nM] | EC50 [2] [nM] | EC50 [3] [nM] | also measured |
| --- | --- | --- | --- | --- |
| COC(=O)CN(C(=O)CCCOc1ccc2nc3[nH]c(=O)[nH]c3cc2c1)C1CCCCC1 | 0.7 | 6 | – | – |
| CCOC(=O)CN(C(=O)CCCOc1ccc2nc3[nH]c(=O)[nH]c3cc2c1)C1CCCCC1 | – | 20 | – | – |
| O=C(O)CCCOc1ccc2c(c1)CN1CC(=O)NC1=N2 | > 100000 | – | 6910 | – |
| O=C(CCCCc1ccc2nc3[nH]c(=O)[nH]c3cc2c1)NC12C[C@H]3C[C@@H](C1)C[C@@H](C2)C3 | 5260 | – | 960 | – |
| O=C(O)CCCCc1ccc2nc3[nH]c(=O)[nH]c3cc2c1 | > 112000 | – | 63100 | – |
| O=C(O)C1CCN(C(=O)CCCOc2ccc3nc4[nH]c(=O)[nH]c4cc3c2)CC1 | 45300 | – | 380 | – |
| O=c1[nH]c2cc3cc(OCCCc4nnn[nH]4)ccc3nc2[nH]1 | > 100000 | – | 6320 | – |
| O=c1[nH]c2cc3cc(OCCCS(=O)(=O)c4ccccc4)ccc3nc2[nH]1 | – | 390 | – | – |
| CCOC(=O)CCc1ccc2nc3[nH]c(=O)[nH]c3cc2c1 | – | 440 | – | – |
| CN(C(=O)CCCOc1ccc2c(c1)CN1CC(=O)NC1=N2)C1CCCCC1 | 440 | – | 100 | – |
| Cn1c(=O)[nH]c2nc3ccc(OCCCC(=O)N4CCCCC4)cc3cc21 | – | 10900 | – | – |
| CCOC(=O)C=Cc1ccc2nc3[nH]c(=O)[nH]c3cc2c1 | – | 440 | – | – |
| Cn1c(=O)[nH]c2nc3ccc(OCCCCC(=O)O)cc3cc21 | – | > 100000 | – | – |
| O=C(CCCOc1ccc2nc3[nH]c(=O)[nH]c3cc2c1)NC1CCCC1 | – | 420 | – | – |
| CN(C(=O)CCCCOc1ccc2nc3[nH]c(=O)[nH]c3cc2c1)C1CCCCCC1 | 1 | – | 5 | – |
| O=C(CCCOc1ccc2nc3[nH]c(=O)[nH]c3cc2c1)NC12C[C@H]3C[C@@H](C1)C[C@@H](C2)C3 | 20 | – | 120 | – |
| O=c1[nH]c2cc3cc(OCCCCS(=O)(=O)c4ccccc4)ccc3nc2[nH]1 | 10 | – | 180 | – |
| Cn1c(=O)[nH]c2nc3ccc(OCCCC(=O)O)cc3cc21 | – | > 106000 | – | – |
| CN(C(=O)CCCCOc1ccc2nc3[nH]c(=O)n(C)c3cc2c1)C1CCCCC1 | – | 150 | – | – |
| CN(C(=O)CCCOc1ccc2nc3[nH]c(=O)n(C)c3cc2c1)C1CCCCC1 | – | 50 | – | – |
| Cn1c(=O)[nH]c2nc3ccc(OCCCC(=O)NC4CCCCC4)cc3cc21 | 7840 | 180 | – | – |
| CN(C(=O)CCCOc1ccc2nc3[nH]c(=O)[nH]c3cc2c1)C1CCCCC1 | 7 | – | – | – |
| CN(C(=O)CCCOc1ccc2nc3c(cc2c1)[nH]c(=O)n3C)C1CCCCC1 | 33000 | – | 520 | – |

| SMILES | EC50 [1] [nM] | EC50 [2] [nM] | EC50 [3] [nM] | also measured |
| --- | --- | --- | --- | --- |
| COC(=O)CCCCOc1ccc2nc3[nH]c(=O)n(C)c3cc2c1 | – | 9110 | – | – |
| CN(C(=O)CCCOc1ccc2nc3[nH]c(=O)[nH]c3cc2c1)C1CCCCCC1 | – | 60 | – | – |
| O=c1[nH]c2cc3cc(OCCCCc4nnn[nH]4)ccc3nc2[nH]1 | 51000 | 5400 | – | – |
| O=C(CCCOc1ccc2nc3[nH]c(=O)[nH]c3cc2c1)NC1CCCCCC1 | 16 | – | 390 | – |
| COC(=O)CCCOc1ccc2nc3c(cc2c1)n(C)c(=O)n3C | – | > 87500 | – | – |
| COC(=O)CCCCc1ccc2nc3[nH]c(=O)[nH]c3cc2c1 | 3000 | – | 430 | – |
| Cn1c(=O)[nH]c2nc3ccc(OCCCS(=O)(=O)c4ccccc4)cc3cc21 | – | 50300 | – | – |
| COC(=O)C=CC=Cc1ccc2nc3[nH]c(=O)[nH]c3cc2c1 | – | 2690 | – | – |
| O=c1[nH]c2cc3cc(CCCO)ccc3nc2[nH]1 | – | 2470 | – | – |
| CN(C(=O)CCCCCOc1ccc2nc3[nH]c(=O)[nH]c3cc2c1)C1CCCCC1 | 540 | – | 20 | – |
| O=c1[nH]c2cc3cc(CCCCCO)ccc3nc2[nH]1 | – | 2950 | – | – |
| O=C(CCCOc1ccc2nc3[nH]c(=O)[nH]c3cc2c1)N1CCCCC1 | – | – | – | EC50 (P2Y purinoceptor 12): 130 nM |
| COC(=O)CCCOc1ccc2nc3c(cc2c1)[nH]c(=O)n3C | 29800 | 360 | – | – |
| Cn1c(=O)[nH]c2cc3cc(OCCCC(=O)O)ccc3nc21 | > 26500 | – | 1660 | – |
| O=C(CCCOc1ccc2nc3[nH]c(=O)[nH]c3cc2c1)NC1CCCCC1 | – | 40 | – | – |
| CN(C(=O)CCCOc1ccc2nc3c(cc2c1)n(C)c(=O)n3C)C1CCCCC1 | – | 26700 | – | – |
| CN(C(=O)CCCCOc1ccc2nc3[nH]c(=O)[nH]c3cc2c1)C1CCCCC1 | – | 8 | – | – |
| O=C(CCCCc1ccc2nc3[nH]c(=O)[nH]c3cc2c1)N1CCCCC1 | 15500 | 420 | – | – |
| CCOC(=O)C1CCN(C(=O)CCCOc2ccc3nc4[nH]c(=O)[nH]c4cc3c2)CC1 | – | 210 | – | – |
| CN(C(=O)CCCCOc1ccc2nc3[nH]c(=O)n(C)c3cc2c1)C1CCCCCC1 | 540 | – | 140 | – |
| CN(C(=O)CCCOc1ccc2nc3[nH]c(=O)n(C)c3cc2c1)C1CCCCCC1 | 1220 | 70 | – | – |
| O=C(O)CN(C(=O)CCCOc1ccc2nc3[nH]c(=O)[nH]c3cc2c1)C1CCCCC1 | 9600 | – | 910 | – |
| CN(C(=O)CCCCc1ccc2nc3[nH]c(=O)[nH]c3cc2c1)C1CCCCC1 | 1100 | – | 210 | – |
